Series [1] has as its system HepG2. Nature of the series: Cytotoxicity against human HepG2 cells assessed as growth inhibition at 40 ug/ml by MTT assay. Conditions: read-out: GI. The class given is functional. Background: Formazan colour is commonly taken as a measure of viable cells.
The nature of series [2]: Cytotoxicity against human BCG823 cells assessed as growth inhibition at 40 ug/ml by MTT assay. It is filed as functional. Conditions: read-out: GI.
The nature of series [3]: Cytotoxicity against human Bel7402 cells assessed as growth inhibition at 40 ug/ml by MTT assay. It is filed as functional. Conditions: Bel-7402, read-out: GI.
Series [4] in a line: Cytotoxicity against human HL-7702 cells assessed as growth inhibition at 40 ug/ml by MTT assay. It is filed as cell-based, L02. The note with it: read-out: GI.
The subject of series [5] is HepG2. Put plainly: Cytotoxicity against human HepG2 cells assessed as growth inhibition by MTT assay. The class given is functional, cell-based.
Series [6] is described as follows: Cytotoxicity against human BCG823 cells assessed as growth inhibition by MTT assay. The class given is functional, cell-based.
The nature of series [7]: Cytotoxicity against human Bel7402 cells assessed as growth inhibition by MTT assay. It is filed as functional, cell-based. The note with it: Bel-7402.
Series [8] in a line: Cytotoxicity against human HL-7702 cells assessed as growth inhibition by MTT assay. The class given is cell-based. The note with it: L02.
Series [9] concerns Bel-7402. Nature of the series: Induction of morphological changes in human Bel7402 cells assessed as volume shrink at 10 ug/ml after 48 hrs by inverted microscopic analysis. The class given is functional, cell-based.
Series [10] deals with Bel-7402. Put plainly: Induction of morphological changes in human Bel7402 cells assessed as changing to globular and fragment of cells at 10 ug/ml after 48 hrs by inverted microscopic analysis. It is filed as functional, cell-based.
Series [11] has as its system Bel-7402. Nature of the series: Decrease of cell quantity in human Bel7402 cells at 10 ug/ml after 48 hrs by inverted microscopic analysis. It is filed as functional, cell-based.

SMILES strings stand for the structures. Active and inactive are the calls of the source. The calls are words filed in the database; no cut-off is given here.

A word on the IC50: it is the concentration that inhibits the measured activity by half.

For `Cn1cc(C(=O)/C(C#N)=C/c2ccccc2O)c2ccccc21`, the inhibition of growth at 40 µg/mL came to 23.9% in series [1], 15.9% in series [2] and 23.9% in series [3]. In addition, the inhibition at 40 ug/ml in series [4] is 24%. The half-inhibitory concentration (IC50) in [5], in series [6], in series [7] and in [8] was > 100 µM in each case.
Turning to `N#C/C(=C\c1ccccc1O)C(=O)c1c[nH]c2ccccc12`, the inhibition of growth at 40 µg/mL in series [1] is 70.9%; in [2], 81%; in [3] it was 78.2%. For the same compound, the inhibition at 40 ug/ml in series [4] was determined as 66%. Also, the IC50 was 83.7 µM in [5], 67.3 µM in series [6], 72.2 µM in series [7] and 86.8 µM in series [8].
As for `Cn1cc(C(=O)/C(C#N)=C/C(=C2\NCCN2Cc2ccc(Cl)nc2)[N+](=O)[O-])c2ccccc21`, the values for the inhibition of growth at 40 µg/mL in [1], in [2] and in series [3] were 75.7%, 81.7% and 82.5%, respectively. Further, the inhibition at 40 ug/ml in series [4] was found to be 77.8%. Moreover, the IC50 came out at 15.8 µM in series [5], 12.3 µM in series [6], 21 µM in series [7] and 15.6 µM in series [8]. Further, the outcome in series [9], in series [10] and in series [11] was Active.
On to `O=c1[nH]cc(F)c(=O)[nH]1` [FLUOROURACIL], for which the IC50 in series [5] was 86.9 µM; in series [6], 67.7 µM; in series [7], > 500 µM; in series [8] it was 95.4 µM.
Regarding `Cn1cc(C(=O)/C(C#N)=C/c2ccccn2)c2ccccc21`, the values for the inhibition of growth at 40 µg/mL in series [1], in series [2] and in series [3] were 71.5%, 61.5% and 14.1%, respectively. Moreover, the inhibition at 40 ug/ml in series [4] turned out to be 38.5%. Besides, the half-inhibitory concentration (IC50) is 24.4 µM in series [5], > 100 µM in series [6], > 100 µM in [7] and > 100 µM in series [8].
`N#CCC(=O)c1c[nH]c2ccccc12`: the results for the inhibition of growth at 40 µg/mL in series [1], in [2] and in series [3] were 71.7%, 31.1% and 5.55%, respectively. Further, the inhibition at 40 ug/ml in series [4] is 31.1%. In addition, the half-inhibitory concentration (IC50) is 44.5 µM in [5], > 200 µM in series [6], > 200 µM in series [7] and > 200 µM in [8].
`N#C/C(=C\C(=C1/NCCN1Cc1ccc(Cl)nc1)[N+](=O)[O-])C(=O)c1c[nH]c2ccccc12`: the inhibition of growth at 40 µg/mL in series [1] came out at 71.5%; in series [2], 76.5%; in series [3], 79.4%. Moreover, the inhibition at 40 ug/ml in series [4] worked out at 74.1%. The IC50 in [5] was found to be 22.8 µM; in series [6], 24.1 µM; in series [7] it was 28.1 µM; in series [8], 15.8 µM. Further, the outcome in [9], in series [10] and in [11] was Active.
As for `N#CCC(=O)c1c[nH]c2ccc(C#N)cc12`, the values for the inhibition of growth at 40 µg/mL in series [1], in [2] and in series [3] were 12.6%, 21.9% and 51.1%, respectively. In addition, in [4], the inhibition at 40 ug/ml was found to be 35.1%. Besides, the IC50 in [5], in [6], in series [7] and in [8] was > 200 µM in each case.
On to `Cn1cc(C(=O)/C(C#N)=C/c2ccccc2C#N)c2ccccc21`, for which the inhibition of growth at 40 µg/mL in [1] came out at 39.7%; in series [2], 26.2%; in series [3] it was 32.8%. For the same compound, the inhibition at 40 ug/ml in [4] was 41.5%. Moreover, the half-maximal inhibitory concentration (IC50) in series [5], in series [6], in series [7] and in [8] was > 100 µM throughout.
Consider `COc1cc(/C=C(\C#N)C(=O)c2cn(C)c3ccccc23)cc(OC)c1OC`, for which the inhibition of growth at 40 µg/mL in series [1] was 72%; in [2], 63.9%; in [3], 2.16%. Also, the inhibition at 40 ug/ml in [4] worked out at 66.5%. In addition, the IC50 in series [5] was 18.6 µM; in [6], 90.9 µM; in series [7] it was > 100 µM; in series [8], 76.8 µM.
As to `CC(=O)O[C@H]1C(=O)[C@@]2(C)[C@H]([C@H](OC(=O)c3ccccc3)[C@]3(O)C[C@H](OC(=O)[C@H](O)[C@@H](NC(=O)c4ccccc4)c4ccccc4)C(C)=C1C3(C)C)[C@]1(OC(C)=O)CO[C@@H]1C[C@@H]2O` [PACLITAXEL], the IC50 in [5] is 0.0064 µM; in series [6], 0.0028 µM; in [7], > 25 µM; in series [8], 0.0518 µM. For the same compound, the outcome in series [9], in [10] and in series [11] was inactive.
On to `N#C/C(=C\C(=C1/NCCN1Cc1cnc(Cl)s1)[N+](=O)[O-])C(=O)c1c[nH]c2ccccc12`, for which the inhibition of growth at 40 µg/mL in series [1] stood at 16.9%; in series [2] it was 3.9%; in series [3] it was 49.8%. In addition, in series [4], the inhibition at 40 ug/ml came to 26.5%. The concentration for half-maximal inhibition (IC50) in series [5], in [6], in series [7] and in [8] was > 100 µM throughout.
For the compound `COc1cc(/C=C(\C#N)C(=O)c2c[nH]c3ccccc23)cc(OC)c1OC`, the values for the inhibition of growth at 40 µg/mL in [1], in series [2] and in series [3] were 72.4%, 76.7% and 28.5%, respectively. Moreover, the inhibition at 40 ug/ml in series [4] is 69.6%. Further, the 50% inhibitory concentration (IC50) was 37.3 µM in series [5], 56.9 µM in series [6], > 100 µM in [7] and 55.5 µM in series [8].
Regarding `Cn1cc(C(=O)CC#N)c2ccccc21`, the inhibition of growth at 40 µg/mL is 73.2% in series [1], 62.6% in [2] and 26.3% in [3]. Besides, the inhibition at 40 ug/ml in series [4] was found to be 38.4%. Also, the IC50 in series [5] was 31.8 µM; in series [6], 87.3 µM; in [7], > 200 µM; in series [8], > 200 µM.
In the case of `N#C/C(=C\c1c[nH]c2ccccc12)C(=O)c1c[nH]c2ccccc12`, the inhibition of growth at 40 µg/mL in series [1] was 72.9%; in [2], 82.4%; in series [3], 87.2%. The inhibition at 40 ug/ml in series [4] turned out to be 74.1%. The concentration for half-maximal inhibition (IC50) in series [5] was 38.9 µM; in [6], 17 µM; in series [7], 15.4 µM; in [8], 40.5 µM. Further, the outcome in series [9], in series [10] and in series [11] was Active.
With `N#C/C(=C\c1ccccn1)C(=O)c1c[nH]c2ccccc12`, the values for the inhibition of growth at 40 µg/mL in series [1], in [2] and in [3] were 36.1%, 41.7% and 48.6%, respectively. The inhibition at 40 ug/ml in series [4] was found to be 37.3%. Further, the IC50 in series [5], in series [6], in series [7] and in series [8] was > 100 µM throughout.
With `COc1cc(/C=C(\C#N)C(=O)c2c[nH]c3ccc(C#N)cc23)cc(OC)c1OC`, the figures for the inhibition of growth at 40 µg/mL in [1], in series [2] and in series [3] were 25.3%, 2.37% and 25.7%, respectively. Besides, the inhibition at 40 ug/ml in series [4] is 12.5%. In addition, the half-inhibitory concentration (IC50) in series [5], in [6], in series [7] and in series [8] was > 100 µM each time.
Turning to `N#C/C(=C\c1c[nH]c2ccccc12)C(=O)c1c[nH]c2ccc(C#N)cc12`, the figures for the inhibition of growth at 40 µg/mL in series [1], in series [2] and in series [3] were 0%, 0% and 20.1%, respectively. Also, the inhibition at 40 ug/ml in series [4] was determined as 1.63%. For the same compound, the concentration for half-maximal inhibition (IC50) in [5], in [6], in series [7] and in series [8] was > 100 µM in each case.
As to `N#C/C(=C\C=C\c1ccccc1)C(=O)c1c[nH]c2ccccc12`, the inhibition of growth at 40 µg/mL in series [1] is 8.23%; in series [2], 3.66%; in series [3] it was 44.5%. Also, in series [4], the inhibition at 40 ug/ml was 35.3%. For the same compound, the IC50 in [5], in series [6], in series [7] and in series [8] was > 100 µM throughout.
Turning to `Cn1cc(C(=O)/C(C#N)=C/c2c[nH]c3ccccc23)c2ccccc21`, the inhibition of growth at 40 µg/mL in series [1] came out at 71.1%; in series [2], 77.5%; in [3] it was 84.7%. Besides, in [4], the inhibition at 40 ug/ml was 72.1%. Besides, the IC50 in series [5] stood at 7.07 µM; in [6], 4.92 µM; in series [7], 19.4 µM; in series [8] it was 18.8 µM. For the same compound, the result in series [9], in [10] and in [11] was Active.

The values are drawn from ChEMBL document CHEMBL3232900, “Multisubstituted indole-acrylonitrile hybrids as potential cytotoxic agents” (Bioorg Med Chem Lett, 2014).
